PMC12030277, “Is Copper-61 the New Gallium-68? Automation and Preclinical Proof-of-Concept of ^61Cu-Based Radiopharmaceuticals for Prostate Cancer Imaging” (Pharmaceuticals, 2025)

Legend:
[1] = tested on: LNCaP (PSMA-positive) cells; assay: In vitro uptake assay, LNCaP cells; assay type: cell-based, human; details: 0.5 nM, 37 °C, up to 2 h, later time points; % of total radioactivity per well, gamma counter; mean ± SEM, N = 2–5 in duplicate
Description: (§1) The human PCa cell lines LNCaP (PSMA-positive) (American Type Culture Collection (ATCC), CRL-1740; Manassas, VA, USA) and DU145 (PSMA-negative) (kindly provided by Dr. Carmen Jerónimo Lab at IPO-Porto) were maintained at 37 °C in a humidified incubator enriched with 5% carbon dioxide. The cells were grown in Roswell Park Memorial Institute (RPMI) 1640 medium (Sigma-Aldrich, R4130; St. Louis, MI, USA) supplemented with 0.2% (w/v) sodium bicarbonate (Sigma-Aldrich, S6297), 10% heat-inactivated fetal bovine serum (FBS; Gibco, A5256801; Grand Island, NY, USA), 1 mM sodium pyruvate (Gibco, 11360-070), and 1% antibiotic-antimycotic (Anti-Anti 100X, Gibco, 15240-062). LNCaP and DU145 cells were seeded in 12-well plates (0.3 × 10^6 cells/well/mL) 48 h before the experiments and the day before, respectively. The multiwell plates used for the LNCaP cell line were previously coated with poly-l-lysine (PLL, Innoprot; Bizcaia, Spain) for 4–6 h to prevent cell detachment during the assays. Both PSMA-positive and -negative cells were incubated with 0.5 nM of ^61Cu-radiopharmaceuticals at 37 °C for different time periods up to 2 h. […] The radioactivity of both the supernatant and cellular fraction was measured in a CRC-55tW gamma-well counter (Mirion Technologies; Atlanta, GA, USA). Cellular uptake was calculated as a percentage of the total radioactivity measured for each well. […]

[2] = tested on: DU145 (PSMA-negative) cells; assay: In vitro uptake assay, DU145 cells; assay type: cell-based, human; details: 0.5 nM, 37 °C, up to 2 h, N = 2–5 in duplicate
Description: as §1

[3] = set-up: species or system mice; details: mouse
[4] = tested on: PSMA-positive tumor xenografts (LNCaP); set-up: species or system mice; details: mouse, in vivo
Description: Animal studies were approved by the Animal Welfare Committee of the Institute of Nuclear Sciences Applied to Health (ICNAS; ORBEA 01-2018) and the Portuguese National Authority for Animal Health (DGAV). Male athymic Swiss nude mice aged 9-12 weeks (34–36 g) were supplied by ICNAS, housed under pathogen-free conditions in individually ventilated cages with controlled temperature/humidity (22 °C/55%) environment on a 12 h light–dark cycle, and provided with food and water ad libitum. […] Tumor growth was monitored with a digital caliper and PET/MRI scans were performed when tumor xenografts reached 5–7 mm in diameter (~75–130 mm^3, as calculated by the formula Length × Width^2 × 0.5), approximately 9 weeks after inoculation.
[^61Cu]Cu-DOTAGA-PSMA-I&T (~0.37 MBq/g; ~3.56 nmol; N = 2) or [^61Cu]Cu-NODAGA-PSMA-I&T (~0.37 MBq/g; ~0.653 nmol; N = 3) in NaCl 0.9% with 10% EtOH was intravenously injected into the tail vein of anesthetized mice. […] Respiratory rate and body temperature were monitored throughout the imaging procedures (SA Instruments, Inc.; Stony Brook, NY, USA). […] For quantitative PET imaging processing, PMOD v3.6 and FUSION Tool (PMOD Technologies; Zürich, Switzerland; RRID:SCR_016547) were used to delineate volumes of interest (VOIs) on the PET images co-registered with the respective MRI. […] Uptake values were expressed as percentage of injected dose per gram of tissue (% ID/g).

Row | Compound | maximum cellular uptake in LNCaP cells [1] [%] | cellular uptake in DU145 cells [2] | in vivo stability [3] | clearance route [4]
1 | O=C(O)CC[C@H](NC(=O)N[C@@H](CCCCNC(=O)CCCCCCC(=O)NCCCC[C@@H](NC(=O)[C@@H](Cc1ccccc1)NC(=O)[C@@H](Cc1ccc(O)c(I)c1)NC(=O)CCC(C(=O)O)N1CCN(CC(=O)O)CCN(CC(=O)O)CC1)C(=O)O)C(=O)O)C(=O)O (stereo partly shown) [[^61Cu]Cu-NODAGA-PSMA-I&T, metal not drawn] | 13.16 ± 0.15 | remained at basal levels | remarkable in vivo metabolic stability | clearance predominantly through the renal pathway
2 | [^61Cu]Cu-DOTAGA-PSMA-I&T | 14.09 ± 0.84 | remained at basal levels | poor kinetic stability in vivo | 
